Residues, ends and D or L forms follow the SMILES beside them.
Assays:
Assay in all cases: In-house protein microarrays (with or without 5 mM DTT), protein named per line
Type in all cases: binding
SH2 and PTB domains [1] = molecular target: T1, SH2 and PTB domains (Homo sapiens, UniProt P42680); conditions: protein TEC
T1 construct: thioredoxin; made in house; host or cells: BL21(DE3)pLysS E. coli
T1 sequence (P42680 1-631): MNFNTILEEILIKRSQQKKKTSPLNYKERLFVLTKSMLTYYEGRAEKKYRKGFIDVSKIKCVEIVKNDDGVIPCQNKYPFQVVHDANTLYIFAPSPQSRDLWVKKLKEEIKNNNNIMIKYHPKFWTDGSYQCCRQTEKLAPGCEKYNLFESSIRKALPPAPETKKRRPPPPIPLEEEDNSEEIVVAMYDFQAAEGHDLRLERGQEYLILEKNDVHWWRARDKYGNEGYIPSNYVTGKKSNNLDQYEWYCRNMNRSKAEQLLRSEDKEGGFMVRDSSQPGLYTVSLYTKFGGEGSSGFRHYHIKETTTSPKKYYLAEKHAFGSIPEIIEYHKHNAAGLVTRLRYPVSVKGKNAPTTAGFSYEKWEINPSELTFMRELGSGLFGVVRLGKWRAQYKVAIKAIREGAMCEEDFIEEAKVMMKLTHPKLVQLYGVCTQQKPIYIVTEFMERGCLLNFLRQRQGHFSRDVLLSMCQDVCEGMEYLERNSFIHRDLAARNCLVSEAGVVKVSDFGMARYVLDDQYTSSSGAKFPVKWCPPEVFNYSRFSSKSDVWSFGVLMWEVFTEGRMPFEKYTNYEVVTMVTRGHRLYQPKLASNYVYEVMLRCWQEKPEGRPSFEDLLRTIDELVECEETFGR
How it was run: (§1)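 Recombinant domains (~40 µM) spotted in duplicate on aldehyde slides, quenched 1 h at room temperature in HEPES/KCl/Tween-20 buffer pH 7.8 with 5 mM DTT and 1% BSA, then probed with rhodamine-labeled peptide. Thioredoxin-subtracted mean fluorescence fitted for KD.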

SH2 and PTB domains [2] = molecular target: T2, SH2 and PTB domains (Homo sapiens, UniProt P29353); conditions: protein SHC1, array fabrication # 39329
T2 construct: thioredoxin; made in house; host or cells: BL21(DE3)pLysS E. coli
T2 sequence (P29353 1-583): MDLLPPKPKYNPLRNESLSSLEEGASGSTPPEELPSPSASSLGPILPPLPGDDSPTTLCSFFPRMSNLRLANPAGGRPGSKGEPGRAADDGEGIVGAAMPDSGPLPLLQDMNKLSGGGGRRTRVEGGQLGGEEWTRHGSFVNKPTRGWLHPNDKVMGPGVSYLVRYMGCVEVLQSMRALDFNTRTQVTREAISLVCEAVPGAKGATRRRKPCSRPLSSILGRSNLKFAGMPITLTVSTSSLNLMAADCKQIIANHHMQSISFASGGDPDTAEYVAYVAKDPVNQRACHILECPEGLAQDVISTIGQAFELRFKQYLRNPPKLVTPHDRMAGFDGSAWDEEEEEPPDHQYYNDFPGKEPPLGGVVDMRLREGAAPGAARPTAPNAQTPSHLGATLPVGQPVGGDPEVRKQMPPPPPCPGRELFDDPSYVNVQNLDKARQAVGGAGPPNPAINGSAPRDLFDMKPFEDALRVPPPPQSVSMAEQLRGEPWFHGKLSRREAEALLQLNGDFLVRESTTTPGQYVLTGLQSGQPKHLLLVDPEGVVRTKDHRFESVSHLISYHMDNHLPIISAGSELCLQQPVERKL
How it was run: as §1

SH2 and PTB domains [3] = molecular target: T3, SH2 and PTB domains (Homo sapiens, UniProt P29350)
T3 construct: thioredoxin; made in house; host or cells: BL21(DE3)pLysS E. coli
How it was run: as §1

SH2 and PTB domains [4] = molecular target: T4, SH2 and PTB domains (Homo sapiens, UniProt P43403)
T4 construct: thioredoxin; made in house; host or cells: BL21(DE3)pLysS E. coli
T4 sequence (P43403 1-619): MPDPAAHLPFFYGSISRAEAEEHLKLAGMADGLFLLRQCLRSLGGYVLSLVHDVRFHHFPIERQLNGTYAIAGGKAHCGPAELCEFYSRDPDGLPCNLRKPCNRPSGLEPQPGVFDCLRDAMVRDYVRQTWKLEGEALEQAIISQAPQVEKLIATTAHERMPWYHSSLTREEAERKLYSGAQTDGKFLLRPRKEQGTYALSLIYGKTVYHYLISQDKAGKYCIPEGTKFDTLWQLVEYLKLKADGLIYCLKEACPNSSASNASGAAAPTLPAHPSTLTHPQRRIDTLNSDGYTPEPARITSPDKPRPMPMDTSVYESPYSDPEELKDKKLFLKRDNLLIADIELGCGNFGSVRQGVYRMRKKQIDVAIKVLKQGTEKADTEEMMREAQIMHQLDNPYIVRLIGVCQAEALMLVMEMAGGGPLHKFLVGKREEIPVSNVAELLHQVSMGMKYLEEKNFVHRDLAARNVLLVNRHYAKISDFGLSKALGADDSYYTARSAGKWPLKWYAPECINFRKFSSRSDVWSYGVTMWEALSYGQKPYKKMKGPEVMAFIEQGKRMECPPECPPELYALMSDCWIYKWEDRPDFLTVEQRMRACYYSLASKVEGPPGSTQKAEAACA
How it was run: as §1

SH2 and PTB domains [5] = molecular target: T5, SH2 and PTB domains (Homo sapiens, UniProt P46109); conditions: protein CRKL
T5 construct: thioredoxin; made in house; host or cells: BL21(DE3)pLysS E. coli
How it was run: as §1

[6] = PM assay replicate # 39336, array fabrication # 39329
[7] = PM assay replicate # 39337, array fabrication # 39329

T3 sequence (P29350 whole entry, the tested form may be a part): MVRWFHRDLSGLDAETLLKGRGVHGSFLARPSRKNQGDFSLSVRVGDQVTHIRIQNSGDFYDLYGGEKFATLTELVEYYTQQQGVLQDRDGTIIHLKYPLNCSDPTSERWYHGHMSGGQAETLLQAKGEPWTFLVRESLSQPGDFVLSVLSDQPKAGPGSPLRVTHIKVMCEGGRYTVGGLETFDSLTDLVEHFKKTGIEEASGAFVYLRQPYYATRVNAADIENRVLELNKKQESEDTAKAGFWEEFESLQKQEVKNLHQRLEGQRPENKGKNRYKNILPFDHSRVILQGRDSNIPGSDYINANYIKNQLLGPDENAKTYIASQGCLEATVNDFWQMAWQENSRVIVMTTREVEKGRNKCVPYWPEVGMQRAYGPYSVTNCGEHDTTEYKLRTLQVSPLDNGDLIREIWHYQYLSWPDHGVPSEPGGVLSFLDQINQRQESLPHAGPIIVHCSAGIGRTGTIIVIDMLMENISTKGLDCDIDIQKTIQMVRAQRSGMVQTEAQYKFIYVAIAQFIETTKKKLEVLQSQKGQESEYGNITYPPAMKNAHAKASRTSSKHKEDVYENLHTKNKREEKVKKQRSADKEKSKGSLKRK
T5 sequence (P46109 whole entry, the tested form may be a part): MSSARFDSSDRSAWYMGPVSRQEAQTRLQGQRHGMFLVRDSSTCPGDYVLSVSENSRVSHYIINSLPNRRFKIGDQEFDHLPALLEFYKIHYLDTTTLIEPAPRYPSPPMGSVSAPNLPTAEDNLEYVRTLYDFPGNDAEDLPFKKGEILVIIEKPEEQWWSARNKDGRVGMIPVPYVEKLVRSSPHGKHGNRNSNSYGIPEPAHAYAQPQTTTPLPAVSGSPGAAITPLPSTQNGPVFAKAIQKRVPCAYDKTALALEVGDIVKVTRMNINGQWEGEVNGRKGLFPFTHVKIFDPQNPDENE

| Compound | Kd (SH2 and PTB domains [1]; PM assay replicate # 39331, array fabrication # 39329) [µM] | Kd (SH2 and PTB domains [1]; [6]) [µM] | Kd (SH2 and PTB domains [2]; PM assay replicate # 39331) [µM] | Kd (SH2 and PTB domains [2]; PM assay replicate # 39336) [µM] | Kd (SH2 and PTB domains [3]; protein PTPN6-NC, PM assay replicate # 39336, array fabrication # 39329) [µM] | Kd (SH2 and PTB domains [3]; protein PTPN6-NC, PM assay replicate # 39337, array fabrication # 39329) [µM] | Kd (SH2 and PTB domains [4]; protein ZAP70-NC, PM assay replicate # 39336, array fabrication # 39329) [µM] | Kd (SH2 and PTB domains [4]; protein ZAP70-NC, PM assay replicate # 39337, array fabrication # 39329) [µM] | Kd (SH2 and PTB domains [1]; [7]) [µM] | Kd (SH2 and PTB domains [1]; PM assay replicate # 39603, array fabrication # 39392) [µM] | Kd (SH2 and PTB domains [5]; [6]) [µM] | Kd (SH2 and PTB domains [5]; [7]) [µM] | Kd (SH2 and PTB domains [2]; PM assay replicate # 39337) [µM] | Kd (SH2 and PTB domains [3]; protein PTPN6-C, PM assay replicate # 39307, array fabrication # 39286) [µM] | Kd (SH2 and PTB domains [4]; protein ZAP70-C, PM assay replicate # 39352, array fabrication # 39336) [µM] | Kd (SH2 and PTB domains [5]; PM assay replicate # 39307, array fabrication # 39286) [µM] |
| --- | --- | --- | --- | --- | --- | --- | --- | --- | --- | --- | --- | --- | --- | --- | --- | --- |
| CC(C)C[C@H](NC(=O)[C@@H]1CCCN1)C(=O)N[C@@H](CCC(N)=O)C(=O)N[C@@H](CCCNC(=N)N)C(=O)N[C@@H](Cc1ccc(OP(=O)(O)O)cc1)C(=O)N[C@@H](CO)C(=O)N[C@@H](CCC(=O)O)C(=O)N[C@@H](CC(=O)O)C(=O)N1CCC[C@H]1C(=O)N[C@H](C(=O)N[C@H](C(=O)N1CCC[C@H]1C(=O)N[C@@H](CC(=O)O)C(=O)O)C(C)C)[C@@H](C)O [ErbB2 pY1112] (HELM PEPTIDE1{P.L.Q.R.[O=C([C@H](Cc1ccc(OP(=O)(O)O)cc1)N[*:1])[*:2]].S.E.D.P.T.V.P.D}$$$$V2.0) | 26.53 | 5.07 | 1.26 | 3.06 |  |  |  |  |  |  |  |  |  |  |  |  |
| CC(C)C[C@H](NC(=O)[C@@H]1CCCN1C(=O)[C@H](C)NC(=O)[C@@H](NC(=O)[C@H](Cc1ccc(OP(=O)(O)O)cc1)NC(=O)CNC(=O)[C@H](CC(=O)O)NC(=O)[C@@H](NC(=O)[C@@H](N)CCC(=O)O)[C@@H](C)O)C(C)C)C(=O)N[C@H](C(=O)N[C@@H](CS)C(=O)N[C@@H](CO)C(=O)N[C@@H](CC(=O)O)C(=O)O)[C@@H](C)O [ErbB2 pY1127] |  | 1.60 |  | 0.98 | 1.62 | 1.62 | 2.41 | 2.01 | 0.04 | 0.25 | 4.80 | 0.64 | 0.82 |  |  |  |
| CC[C@H](C)[C@H](NC(=O)[C@H](CC(N)=O)NC(=O)[C@H](CC(N)=O)NC(=O)[C@H](CCCCN)NC(=O)[C@H](CC(C)C)NC(=O)[C@H](Cc1ccc(OP(=O)(O)O)cc1)NC(=O)[C@H](CCC(=O)O)NC(=O)[C@H](C)NC(=O)[C@H](CCCCN)NC(=O)CNC(=O)[C@H](CC(C)C)NC(=O)[C@@H](NC(=O)[C@H](CC(N)=O)NC(=O)[C@H](C)NC(=O)[C@@H](N)Cc1ccccc1)[C@@H](C)O)C(=O)N[C@@H](CC(C)C)C(=O)N[C@@H](CO)C(=O)N[C@@H](CC(=O)O)C(=O)O [ErbB4 pY1221 (18-mer)] (HELM PEPTIDE1{F.A.N.T.L.G.K.A.E.[O=C([C@H](Cc1ccc(OP(=O)(O)O)cc1)N[*:1])[*:2]].L.K.N.N.I.L.S.D}$$$$V2.0) |  |  |  |  |  |  |  |  |  |  |  |  |  | 716.01 | 0.79 | 0.11 |

Reference: PMC3433420 (PLoS ONE, 2012)
